Measured values as given in patent publication US6384027B1, “Phthalocyanine analogs” (QinetiQ Limited, priority 1997, dated 2002).

Assay: Solubility in organic solvents
Type: physicochemical
Conditions: in solvents such as THF, toluene, cyclohexane and dichloromethane

solubility: good solubility
Structure (SMILES): CCCCCCCCc1ccc(CCCCCCCC)c2c1-c1nc-2nc2[nH]c(nc3nc(nc4[nH]c(n1)c1ccncc41)-c1c(CCCCCCCC)ccc(CCCCCCCC)c1-3)c1c(CCCCCCCC)ccc(CCCCCCCC)c21 [1a, 1,4,8,11,15,18-(hexaoctyl)tribenzo-3,4-pyridinoporphyrazine]
